Test results as given in patent US20080214529A1, “SATURATED FUSED [1,2-b]PYRIDAZINONE COMPOUNDS” (priority 2006, published 2008).
Structures can show the parent of a compound that is named as a salt.

Columns and labels:
[1] = target: NS5B polymerase (Hepatitis C virus genotype 1b, UniProt P26663); assay: biochemical; settings: NS5B polymerase inhibition; 20 nM enzyme, 75 min at 28° C.
Method: Compounds were tested for HCV polymerase inhibition. Assays were performed in a 96-well streptavidin-coated FlashPlate using 20 nM enzyme, 0.5 μCi of [α-^33P]GTP, 0.6 μM GTP, and 250 nM 5′biotinylated oligo (rG13)/poly rC in 20 mM Tris-HCl, pH 7.5, 5 mM MgCl2, 5 mM dithiothreitol, 0.1 g/L bovine serum albumin, and 100 U/mL RNAse inhibitor. The reaction was stopped by aspiration after 75 min at 28° C. and the plate was washed several times. After washing and drying the plate, incorporated radioactivity was counted using a Microbeta scintillation counter. IC50 values were calculated relative to the uninhibited control and inhibition data were fitted to a 4-parameter IC50 equation.

Sequence of NS5B polymerase (P26663 2420-3010): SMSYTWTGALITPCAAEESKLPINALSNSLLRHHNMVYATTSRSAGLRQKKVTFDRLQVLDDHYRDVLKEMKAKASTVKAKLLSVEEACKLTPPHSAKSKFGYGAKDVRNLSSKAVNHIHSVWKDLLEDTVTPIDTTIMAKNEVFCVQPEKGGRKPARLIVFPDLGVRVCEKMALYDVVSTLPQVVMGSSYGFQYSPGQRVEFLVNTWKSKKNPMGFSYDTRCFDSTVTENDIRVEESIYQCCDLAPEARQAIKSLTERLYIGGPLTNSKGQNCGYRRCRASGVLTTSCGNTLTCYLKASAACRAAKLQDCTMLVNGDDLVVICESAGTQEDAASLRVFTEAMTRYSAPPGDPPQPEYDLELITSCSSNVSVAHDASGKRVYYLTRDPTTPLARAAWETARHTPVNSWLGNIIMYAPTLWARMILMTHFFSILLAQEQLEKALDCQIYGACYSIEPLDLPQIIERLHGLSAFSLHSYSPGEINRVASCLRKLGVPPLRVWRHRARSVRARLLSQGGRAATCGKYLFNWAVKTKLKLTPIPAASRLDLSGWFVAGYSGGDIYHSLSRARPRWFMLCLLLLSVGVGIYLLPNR

Row | SMILES | melting point [°C] | IC50 [1] [nM]
1 | CN1N(CCC(C)(C)C)C(=O)C(C2=NS(=O)(=O)c3cc(NS(C)(=O)=O)ccc3N2)=C(O)C12CCCC2 (as salt: trifluoroacetic acid salt) [Example 5, N-{3-[7-(3,3-Dimethyl-butyl)-10-hydroxy-6-methyl-8-oxo-6,7-diaza-spiro[4.5]dec-9-en-9-yl]-1,1-dioxo-1,4-dihydro-1λ^6-benzo[1,2,4]thiadiazin-7-yl}-methanesulfonamide] | 203.8 to 205.7 | 
2 | CS(=O)(=O)Nc1ccc2c(c1)S(=O)(=O)N=C(C1=C(O)C3CC4CCCC4N3N(C3CCCCC3)C1=O)N2 (single isomer, unassigned) [10 Isomer 1] |  | 200 to 3000
3 | CS(=O)(=O)Nc1ccc2c(c1)S(=O)(=O)N=C(C1=C(O)C3CCCCN3N(Cc3ccc(F)cc3)C1=O)N2 (stereo not drawn) [Example 1, N-{3-[1-(4-Fluoro-benzyl)-4-hydroxy-2-oxo-2,4a,5,6,7,8-hexahydro-1H-pyrido[1,2-b]pyridazin-3-yl]-1,1-dioxo-1,4-dihydro-1λ^6-benzo[1,2,4]thiadiazin-7-yl}-methanesulfonamide] |  | < 20
4 | CC(C)(C)CCN1C(=O)C(C2=NS(=O)(=O)c3cc(NS(C)(=O)=O)ccc3N2)=C(O)C2CCCCN21 (stereo not drawn) [Example 2, N-{3-[1-(3,3-Dimethyl-butyl)-4-hydroxy-2-oxo-2,4a,5,6,7,8-hexahydro-1H-pyrido[1,2-b]pyridazin-3-yl]-1,1-dioxo-1,4-dihydro-1λ^6-benzo[1,2,4]thiadiazin-7-yl}-methanesulfonamide] |  | 20 to 200
5 | CC(C)(C)CCN1C(=O)C(C2=NS(=O)(=O)c3cc(NS(C)(=O)=O)ccc3N2)=C(O)C2CCCN21 (stereo not drawn) [Example 3, N-{3-[1-(3,3-Dimethyl-butyl)-4-hydroxy-2-oxo-1,2,4a,5,6,7-hexahydro-pyrrolo[1,2-b]pyridazin-3-yl]-1,1-dioxo-1,4-dihydro-1λ^6-benzo[1,2,4]thiadiazin-7-yl}-methanesulfonamide] |  | < 20
6 | CC(C)(C)CCN1C(=O)C(C2=NS(=O)(=O)c3cc(NS(C)(=O)=O)ccc3N2)=C(O)C2(C)CCCN12 (stereo not drawn) [Example 4, N-{3-[1-(3,3-Dimethyl-butyl)-4-hydroxy-4a-methyl-2-oxo-1,2,4a,5,6,7-hexahydro-pyrrolo[1,2-b]pyridazin-3-yl]-1,1-dioxo-1,4-dihydro-1λ^6-benzo[1,2,4]thiadiazin-7-yl}-methanesulfonamide] |  | 20 to 200
7 | CN1N(CCC(C)(C)C)C(=O)C(C2=NS(=O)(=O)c3cc(NS(C)(=O)=O)ccc3N2)=C(O)C12CCCC2 [Example 5, N-{3-[7-(3,3-Dimethyl-butyl)-10-hydroxy-6-methyl-8-oxo-6,7-diaza-spiro[4.5]dec-9-en-9-yl]-1,1-dioxo-1,4-dihydro-1λ^6-benzo[1,2,4]thiadiazin-7-yl}-methanesulfonamide] |  | 200 to 3000
8 | CC(C)CCN1C(=O)C(C2=NS(=O)(=O)c3cc(NS(C)(=O)=O)ccc3N2)=C(O)C2CCCN21 (stereo not drawn) [Example 6, N-{3-[4-Hydroxy-1-(3-methyl-butyl)-2-oxo-1,2,4a,5,6,7-hexahydro-pyrrolo[1,2-b]pyridazin-3-yl]-1,1-dioxo-1,4-dihydro-1λ^6-benzo[1,2,4]thiadiazin-7-yl}-methanesulfonamide] |  | < 20
9 | CS(=O)(=O)Nc1ccc2c(c1)S(=O)(=O)N=C(C1=C(O)C3CCCN3N(Cc3ccc(F)cc3)C1=O)N2 (stereo not drawn) [Example 7, N-{3-[1-(4-Fluoro-benzyl)-4-hydroxy-2-oxo-1,2,4a,5,6,7-hexahydro-pyrrolo[1,2-b]pyridazin-3-yl]-1,1-dioxo-1,4-dihydro-1λ^6-benzo[1,2,4]thiadiazin-7-yl}-methanesulfonamide] |  | < 20
10 | CS(=O)(=O)Nc1ccc2c(c1)S(=O)(=O)N=C(C1=C(O)C3C4CCC(C4)N3N(Cc3ccc(F)cc3)C1=O)N2 (stereo not drawn) [Example 9, N-{3-[3-(4-Fluoro-benzyl)-6-hydroxy-4-oxo-2,3-diaza-tricyclo[6.2.1.0^2,7]undec-5-en-5-yl]-1,1-dioxo-1,4-dihydro-1λ^6-benzo[1,2,4]thiadiazin-7-yl}-methanesulfonamide] |  | < 20
11 | CS(=O)(=O)Nc1ccc2c(c1)S(=O)(=O)N=C(C1=C(O)[C@@H]3C4CCC(CC4)N3N(Cc3ccc(F)cc3)C1=O)N2 [Example 11, (7S)-N-{3-[3-(4-Fluoro-benzyl)-6-hydroxy-4-oxo-2,3-diaza-tricyclo[6.2.2.0^2,7]dodec-5-en-5-yl]-1,1-dioxo-1,4-dihydro-1λ^6-benzo[1,2,4]thiadiazin-7-yl}-methanesulfonamide] |  | 20 to 200
12 | CS(=O)(=O)Nc1ccc2c(c1)S(=O)(=O)N=C(C1=C(O)[C@]34C[C@H]3CCN4N(Cc3ccc(F)cc3)C1=O)N2 [Example 12, (1aR,7aS)-N-{3-[4-(4-Fluoro-benzyl)-7-hydroxy-5-oxo-1,1a,2,3,4,5-hexahydro-3a,4-diaza-cyclopropa[c]inden-6-yl]-1,1-dioxo-1,4-dihydro-1λ^6-benzo[1,2,4]thiadiazin-7-yl}-methanesulfonamide] |  | 20 to 200
